Results reported in article PMC12114571, “3-(3-Azabicyclo[2, 2, 1]heptan-2-yl)-1,2,4-oxadiazoles as Novel Potent DPP-4 Inhibitors to Treat T2DM” (Pharmaceuticals, 2025).
Read-outs that look alike come from different tables or passages of the source.

Columns and labels:
[1] = molecular target: T1, recombinant DPP-4 enzyme D4943 (Homo sapiens, UniProt P27487); test: DPP-4 enzyme inhibitory assay, chromogenic substrate Gly-Pro-pNA, absorbance at 405 nm; format: biochemical; conditions: 37 °C for 30 min, pH = 7.6, dilution range 10^−4 to 10^−11 M
T1 construct: purchased Sigma-Aldrich D4943
Method: (§1) The assessment of DPP-4 enzyme inhibitory activities for the synthesised compounds was performed using protocols similar to those previously described in the literature. […] Following a brief incubation period (37 °C for 30 min), absorbance at 405 nm was measured. Initial optimisation of the procedure utilised reference compounds. […] Correspondingly, the analysis of inhibition activity for related enzymes was executed using DPP-8 and DPP-9 inhibition assays, where the compounds were studied in the dilution range 10^−2 to 10^−8 M (Table 2).
(§2) For the in vitro assays, we used the substrate Gly-Pro-p-nitroanilide (H-Gly-Pro pNA HCl, G0513) and recombinant dipeptidyl peptidase-4 enzyme (D4943), which were purchased from Sigma-Aldrich (St. Louis, MO, USA). Samples containing DPP-4 (0.0015 U/well) and varying concentrations of test compounds were incubated with the chromogenic peptide substrate, G0513 (90 µg/well), in a total volume of 100 µL of buffer system (50 mM Tris-HCl, 50 mM NaCl, 0.01% Triton, pH = 7.6). The mixtures were incubated at 37 ◦C for 30 min, and the absorbance at 405 nm was measured using the microplate reader ChemWell (Awareness Technology Inc., Palm City, FL, USA). The DPP-4 inhibitory activities for each test compound were calculated. IC50 values were obtained using GraphPad Prism 8 software. The inhibition activity analysis of the related enzymes was performed using the “Fluorogenic DPP-8 Assay Kit” and “Fluorogenic DPP-9 Assay Kit”, both purchased from BPS Bioscience (San Diego, CA, USA). The dilution range for every compound was 10^−2–10^−8 M.

DPP-9 [2] = molecular target: T2, DPP-9 (Homo sapiens, UniProt Q86TI2); test: Fluorogenic DPP-9 Assay Kit inhibition assay; format: biochemical; conditions: for IC50: dilution range 10^−2 to 10^−8 M
T2 construct: purchased BPS Bioscience
Method: as §1, §2

DPP-8 [3] = molecular target: T3, DPP-8 (Homo sapiens, UniProt Q6V1X1); test: Fluorogenic DPP-8 Assay Kit inhibition assay; format: biochemical; conditions: for IC50: dilution range 10^−2 to 10^−8 M
T3 construct: purchased BPS Bioscience
Method: as §1, §2

[4] = molecular target: T1, recombinant DPP-4 enzyme D4943; parameters: method as in PMID 35337071; conditions: neogliptin reference value; cited from earlier work
DPP-9 [5] = molecular target: T2, DPP-9; parameters: method as in PMID 35337071; conditions: neogliptin reference value; cited from earlier work
DPP-8 [6] = molecular target: T3, DPP-8; parameters: method as in PMID 35337071; conditions: neogliptin reference value; cited from earlier work
[7] = concentration range 10^−3–10^−6 M

T1 sequence (P27487 whole entry): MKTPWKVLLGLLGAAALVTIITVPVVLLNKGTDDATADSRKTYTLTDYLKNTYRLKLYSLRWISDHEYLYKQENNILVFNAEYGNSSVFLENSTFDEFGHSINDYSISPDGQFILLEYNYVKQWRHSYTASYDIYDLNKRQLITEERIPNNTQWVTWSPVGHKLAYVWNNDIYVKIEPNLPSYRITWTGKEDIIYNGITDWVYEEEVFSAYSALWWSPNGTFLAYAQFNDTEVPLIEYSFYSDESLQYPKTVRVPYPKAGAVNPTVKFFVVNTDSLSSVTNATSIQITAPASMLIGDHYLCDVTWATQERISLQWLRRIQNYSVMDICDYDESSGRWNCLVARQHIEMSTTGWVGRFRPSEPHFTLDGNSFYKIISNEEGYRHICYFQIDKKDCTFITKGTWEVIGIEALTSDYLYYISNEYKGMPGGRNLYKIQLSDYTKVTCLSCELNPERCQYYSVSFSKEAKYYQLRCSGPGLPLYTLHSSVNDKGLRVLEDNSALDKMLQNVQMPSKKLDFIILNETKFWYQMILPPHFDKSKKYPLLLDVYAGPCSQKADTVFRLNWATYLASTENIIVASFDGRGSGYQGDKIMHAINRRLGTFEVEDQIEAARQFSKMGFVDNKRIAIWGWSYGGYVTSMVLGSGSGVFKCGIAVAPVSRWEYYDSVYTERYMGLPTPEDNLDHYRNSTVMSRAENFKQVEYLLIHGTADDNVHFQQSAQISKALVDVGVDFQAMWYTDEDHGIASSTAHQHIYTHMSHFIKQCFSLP
T2 sequence (Q86TI2 whole entry): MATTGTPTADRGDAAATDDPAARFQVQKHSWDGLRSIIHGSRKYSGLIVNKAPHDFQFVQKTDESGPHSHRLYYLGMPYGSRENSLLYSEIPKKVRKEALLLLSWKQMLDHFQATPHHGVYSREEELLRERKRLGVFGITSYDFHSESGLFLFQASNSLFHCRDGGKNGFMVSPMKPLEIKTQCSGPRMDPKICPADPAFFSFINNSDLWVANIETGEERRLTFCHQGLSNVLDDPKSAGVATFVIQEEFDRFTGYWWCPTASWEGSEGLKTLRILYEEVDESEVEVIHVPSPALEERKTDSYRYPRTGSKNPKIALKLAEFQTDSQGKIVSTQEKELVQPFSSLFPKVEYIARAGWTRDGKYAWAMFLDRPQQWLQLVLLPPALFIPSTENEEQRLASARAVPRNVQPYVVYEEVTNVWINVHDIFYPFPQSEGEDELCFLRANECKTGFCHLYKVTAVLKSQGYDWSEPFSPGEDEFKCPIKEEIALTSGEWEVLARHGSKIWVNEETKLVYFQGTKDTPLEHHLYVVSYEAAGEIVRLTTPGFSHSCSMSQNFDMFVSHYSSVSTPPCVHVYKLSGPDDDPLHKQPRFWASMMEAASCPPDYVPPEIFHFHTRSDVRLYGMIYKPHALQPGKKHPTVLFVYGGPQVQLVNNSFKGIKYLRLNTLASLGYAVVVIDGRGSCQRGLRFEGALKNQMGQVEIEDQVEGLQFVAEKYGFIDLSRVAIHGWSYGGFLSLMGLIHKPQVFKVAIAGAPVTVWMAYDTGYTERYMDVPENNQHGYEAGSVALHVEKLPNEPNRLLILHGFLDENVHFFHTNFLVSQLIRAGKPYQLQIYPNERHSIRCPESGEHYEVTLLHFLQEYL
T3 sequence (Q6V1X1 whole entry): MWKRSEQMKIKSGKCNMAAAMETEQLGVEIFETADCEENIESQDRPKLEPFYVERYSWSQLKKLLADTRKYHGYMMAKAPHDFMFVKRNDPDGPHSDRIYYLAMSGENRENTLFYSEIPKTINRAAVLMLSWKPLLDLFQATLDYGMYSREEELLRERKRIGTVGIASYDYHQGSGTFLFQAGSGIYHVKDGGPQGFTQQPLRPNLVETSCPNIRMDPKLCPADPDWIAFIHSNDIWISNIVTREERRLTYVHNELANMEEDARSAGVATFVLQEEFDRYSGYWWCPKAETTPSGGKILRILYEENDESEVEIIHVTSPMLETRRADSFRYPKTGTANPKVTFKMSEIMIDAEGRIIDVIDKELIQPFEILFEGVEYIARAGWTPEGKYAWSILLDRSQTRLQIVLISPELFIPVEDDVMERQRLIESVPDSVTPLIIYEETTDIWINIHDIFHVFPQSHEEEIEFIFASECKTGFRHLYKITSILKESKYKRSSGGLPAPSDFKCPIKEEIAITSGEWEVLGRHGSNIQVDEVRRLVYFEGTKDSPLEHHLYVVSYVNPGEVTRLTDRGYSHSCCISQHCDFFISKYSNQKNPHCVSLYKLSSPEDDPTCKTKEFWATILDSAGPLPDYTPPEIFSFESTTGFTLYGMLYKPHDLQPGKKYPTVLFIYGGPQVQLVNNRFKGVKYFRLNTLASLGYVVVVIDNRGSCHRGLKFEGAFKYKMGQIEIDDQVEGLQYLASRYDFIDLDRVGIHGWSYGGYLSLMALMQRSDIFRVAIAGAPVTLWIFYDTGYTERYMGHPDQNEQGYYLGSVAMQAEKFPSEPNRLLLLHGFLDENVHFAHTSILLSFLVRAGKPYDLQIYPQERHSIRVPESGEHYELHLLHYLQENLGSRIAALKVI

IC50 [1]	IC50 (DPP-9 [2])	IC50 (DPP-8 [3])	SMILES	DPP-9 inhibitory activity (in words) (DPP-9 [2]; [7])	DPP-8 inhibitory activity (in words) (DPP-8 [3]; [7])	IC50 [4]	IC50 (DPP-9 [5])	IC50 (DPP-8 [6])
21.6 nM	> 1000 nM	> 1000 nM	N[C@@H](CC(=O)N1C2CCC(C2)[C@H]1c1noc(-c2ccccc2)n1)Cc1cc(F)c(F)cc1F (stereo partly drawn) [3a, (3R)-3-Amino-1-[(3S)-3-(5-phenyl-1,2,4-oxadiazol-3-yl)-2-azabicyclo [2.2.1]heptan-2-yl]-4-(2,4,5-trifluorophenyl)butan-1-one]	–	–	–	–	–
> 1000 nM	> 1000 nM	> 1000 nM	N[C@@H](CC(=O)N1C2CCC(C2)[C@@H]1c1noc(-c2ccccc2)n1)Cc1cc(F)c(F)cc1F (stereo partly drawn) [3b, (3R)-3-Amino-1-[(3R)-3-(5-phenyl-1,2,4-oxadiazol-3-yl)-2-azabicyclo[2.2.1]heptan-2-yl]-4-(2,4,5-trifluorophenyl)butan-1-one]	–	–	–	–	–
4.3 nM	> 1000 nM	> 1000 nM	N[C@@H](CC(=O)N1C2CCC(C2)[C@H]1c1nc(-c2ccccc2)no1)Cc1cc(F)c(F)cc1F (stereo partly drawn) [9a, (3R)-3-Amino-1-[(3S)-3-(3-phenyl-1,2,4-oxadiazol-5-yl)-2-azabicyclo[2.2.1]heptan-2-yl]-4-(2,4,5-trifluorophenyl)butan-1-one]	did not mediate any substantial inhibition	did not mediate any substantial inhibition	–	–	–
> 1000 nM	> 1000 nM	> 1000 nM	N[C@@H](CC(=O)N1C2CCC(C2)[C@@H]1c1nc(-c2ccccc2)no1)Cc1cc(F)c(F)cc1F (stereo partly drawn) [9b, (3R)-3-Amino-1-[(3R)-3-(3-phenyl-1,2,4-oxadiazol-5-yl)-2-azabicyclo[2.2.1]heptan-2-yl]-4-(2,4,5-trifluorophenyl)butan-1-one]	–	–	–	–	–
–	–	–	N#CC1C2CCC(C2)N1C(=O)CC(N)Cc1cc(F)c(F)cc1F (centres unmarked) [Neogliptin, neogliptin]	–	–	16.8 nM	> 1000 nM	> 1000 nM
